Test results as given in ChEMBL document CHEMBL2074330, “Identification of glutathione as a driving force and leukotriene C4 as a substrate for oatp1, the hepatic sinusoidal organic solute transporter” (J Biol Chem, 1998).

How the values were obtained:
[1] = target: T1, Solute carrier organic anion transporter family member 1A1 (Rattus norvegicus, UniProt P46720); assay: TP_TRANSPORTER: inhibition of DNP-SG uptake (DNP-SG: 50 uM, BSP: 250 uM) in Xenopus laevis oocytes; type: functional, cell-based; parameters: scale not given: the % may be the effect or the level left; details: oocyte
T1 sequence (P46720 whole entry): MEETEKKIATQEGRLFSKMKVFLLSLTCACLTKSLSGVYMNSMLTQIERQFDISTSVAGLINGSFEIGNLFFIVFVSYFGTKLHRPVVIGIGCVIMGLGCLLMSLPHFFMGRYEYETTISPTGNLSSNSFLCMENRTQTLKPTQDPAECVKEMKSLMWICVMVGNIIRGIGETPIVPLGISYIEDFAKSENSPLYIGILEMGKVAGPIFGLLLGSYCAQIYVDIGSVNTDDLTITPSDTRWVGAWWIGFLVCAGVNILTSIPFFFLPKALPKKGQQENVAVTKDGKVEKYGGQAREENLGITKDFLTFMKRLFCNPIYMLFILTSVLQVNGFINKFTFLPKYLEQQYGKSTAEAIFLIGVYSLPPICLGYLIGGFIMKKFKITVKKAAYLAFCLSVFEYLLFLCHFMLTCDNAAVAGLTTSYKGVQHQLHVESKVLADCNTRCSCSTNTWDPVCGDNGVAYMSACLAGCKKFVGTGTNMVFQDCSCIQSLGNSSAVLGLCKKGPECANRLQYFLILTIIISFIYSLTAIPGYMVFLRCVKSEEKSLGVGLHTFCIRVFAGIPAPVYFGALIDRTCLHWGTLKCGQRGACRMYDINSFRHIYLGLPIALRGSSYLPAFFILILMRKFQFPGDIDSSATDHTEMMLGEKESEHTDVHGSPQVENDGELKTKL

[2] = target: T1, Solute carrier organic anion transporter family member 1A1; assay: TP_TRANSPORTER: inhibition of LTC4 uptake (LTC4: 0.01uM, BSP: 250 uM) in Xenopus laevis oocytes; type: functional, cell-based, Oocyte; parameters: scale not given: the % may be the effect or the level left; details: probe LTC4, read-out: Activity
[3] = target: T1, Solute carrier organic anion transporter family member 1A1; assay: TP_TRANSPORTER: inhibition of LTC4 uptake (LTC4: 0.01uM, Bilirubin ditaurate: 500 uM) in Xenopus laevis oocytes; type: functional, cell-based, Oocyte; parameters: scale not given: the % may be the effect or the level left; details: probe LTC4, read-out: Activity
[4] = target: T1, Solute carrier organic anion transporter family member 1A1; assay: TP_TRANSPORTER: inhibition of DNP-SG uptake (DNP-SG: 50 uM, Bilirubin ditaurate: 500 uM) in Xenopus laevis oocytes; type: functional, cell-based, Oocyte; parameters: scale not given: the % may be the effect or the level left; details: probe DNP-SG, read-out: Activity
[5] = target: T1, Solute carrier organic anion transporter family member 1A1; assay: TP_TRANSPORTER: inhibition of LTC4 uptake (LTC4: 0.01uM, DIDS: 250 uM) in Xenopus laevis oocytes; type: functional, cell-based, Oocyte; parameters: scale not given: the % may be the effect or the level left; details: probe LTC4, read-out: Activity
[6] = target: T1, Solute carrier organic anion transporter family member 1A1; assay: TP_TRANSPORTER: inhibition of DNP-SG uptake (DNP-SG: 50 uM, DIDS: 250 uM) in Xenopus laevis oocytes; type: functional, cell-based, Oocyte; parameters: scale not given: the % may be the effect or the level left; details: probe DNP-SG, read-out: Activity
[7] = target: T1, Solute carrier organic anion transporter family member 1A1; assay: TP_TRANSPORTER: inhibition of DNP-SG uptake (DNP-SG: 50 uM, p-Chlorophenacyl-SG: 1000 uM) in Xenopus laevis oocytes; type: functional, cell-based, Oocyte; parameters: scale not given: the % may be the effect or the level left; details: probe DNP-SG, read-out: Activity
[8] = target: T1, Solute carrier organic anion transporter family member 1A1; assay: TP_TRANSPORTER: inhibition of LTC4 uptake (LTC4: 0.01uM, p-Chlorophenacyl-SG: 1000 uM) in Xenopus laevis oocytes; type: functional, cell-based, Oocyte; parameters: scale not given: the % may be the effect or the level left; details: probe LTC4, read-out: Activity
[9] = target: T1, Solute carrier organic anion transporter family member 1A1; assay: TP_TRANSPORTER: inhibition of LTC4 uptake (LTC4: 0.01uM, Ouabain: 500 uM) in Xenopus laevis oocytes; type: functional, cell-based, Oocyte; parameters: scale not given: the % may be the effect or the level left; details: probe LTC4, read-out: Activity
[10] = target: T1, Solute carrier organic anion transporter family member 1A1; assay: TP_TRANSPORTER: inhibition of DNP-SG uptake (DNP-SG: 50 uM, Ouabain: 500 uM) in Xenopus laevis oocytes; type: functional, cell-based, Oocyte; parameters: scale not given: the % may be the effect or the level left; details: probe DNP-SG, read-out: Activity
[11] = target: T1, Solute carrier organic anion transporter family member 1A1; assay: TP_TRANSPORTER: inhibition of LTC4 uptake (LTC4: 0.01uM, DNP-SG: 1000 uM) in Xenopus laevis oocytes; type: functional, cell-based; parameters: scale not given: the % may be the effect or the level left; details: oocyte
[12] = substrate: CCCCC/C=C\C\C=C/C=C/C=C/[C@@H](SC[C@@H](NC(=O)CC[C@H](N)C(=O)O)C(=O)NCC(=O)O)[C@@H](O)CCCC(=O)O; assay: (§1) TP_TRANSPORTER: uptake in Xenopus laevis oocytes; type: functional, cell-based, Oocyte
[13] = substrate: N[C@@H](CCC(=O)N[C@H](CSc1ccc([N+](=O)[O-])cc1[N+](=O)[O-])C(=O)NCC(=O)O)C(=O)O; assay: as §1; type: functional, cell-based, Oocyte

O=C1OC(c2ccc(O)c(S(=O)(=O)[O-])c2)(c2ccc(O)c(S(=O)(=O)[O-])c2)c2c(Br)c(Br)c(Br)c(Br)c21.[Na+].[Na+] [SULFOBROMOPHTHALEIN SODIUM]
Activity [1]: < 2% | activity at 250 µM [2]: < 2%

C=CC1=C(C)/C(=C/c2[nH]c(Cc3[nH]c(/C=C4\NC(=O)C(C)=C4C=C)c(C)c3CCC(=O)NCCS(=O)(=O)O)c(CCC(=O)NCCS(=O)(=O)O)c2C)NC1=O [BILIRUBIN DITAURATE]
activity at 500 µM [3]: 4% | activity at 500 µM [4]: 6%

O=S(=O)(O)c1cc(N=C=S)ccc1/C=C/c1ccc(NC=S)cc1S(=O)(=O)O
activity at 250 µM [5]: 25% | activity at 250 µM [6]: 39%

NC(CCC(=O)N[C@@H](CSCC(=O)c1ccc(Cl)cc1)C(=O)NCC(=O)O)C(=O)O (stereo partly drawn)
activity at 1000 µM [7]: 31% | activity at 1000 µM [8]: 23%

C[C@@H]1O[C@@H](O[C@H]2C[C@@H](O)[C@]3(CO)[C@H]4[C@H](O)C[C@]5(C)[C@@H](C6=CC(=O)OC6)CC[C@]5(O)[C@@H]4CC[C@]3(O)C2)[C@H](O)[C@H](O)[C@H]1O [OUABAIN]
activity at 500 µM [9]: 52% | activity at 500 µM [10]: 61%

N[C@@H](CCC(=O)N[C@H](CSc1ccc([N+](=O)[O-])cc1[N+](=O)[O-])C(=O)NCC(=O)O)C(=O)O
Activity [11]: 15%

B1: Solute carrier organic anion transporter family member 1A1 (Rattus norvegicus) (protein)
chain: T1 sequence (P46720 whole entry)
Km [12]: 0.27 µM | Km [13]: 408 µM
